For nine compounds, IC50 and inhibition results are on record in ChEMBL document CHEMBL4145637, “Libertellenones O-S and Eutypellenones A and B, Pimarane Diterpene Derivatives from the Arctic Fungus Eutypella sp. D-1” (J Nat Prod, 2018).

The source made the active and inactive calls. No cut-off for these calls is given here. Where only a bound is given, the exact number is not on record here.

For one assay, the system named is MCF7. As to the kind of experiment: Cytotoxicity against human MCF7 cells after 72 hrs by CCK8 assay. Type of assay: functional, cell-based. To be noted: MCF7, 72 h.
A further assay has as its system HCT-116. As to the kind of experiment: Cytotoxicity against human HCT116 cells after 72 hrs by CCK8 assay. The note with it: HCT-116, 72 h. The format is functional, cell-based.
For another assay, the system named is HeLa. Briefly: Cytotoxicity against human HeLa cells after 72 hrs by CCK8 assay. The format is functional, cell-based.
Another assay deals with SW1990. Briefly: Cytotoxicity against human SW1990 cells after 72 hrs by CCK8 assay. To be noted: SW1990, 72 h. The format is functional, cell-based.
For the next assay, the system named is PANC-1. Briefly: Cytotoxicity against human PANC1 cells after 72 hrs by CCK8 assay. Type of assay: functional, cell-based. The note with it: PANC-1, 72 h.
The next assay deals with HEK293. Briefly: Inhibition of TNFalpha-stimulated NFkappaB (unknown origin) expressed in HEK293 cells pretreated for 2 hrs followed by TNFalpha stimulation and measured after 6 hrs by luciferase reporter gene assay. The format is cell-based. To be noted: Homo sapiens.
The subject of a further assay is RAW264.7. Briefly: Inhibition of LPS-induced nitric oxide production in […] RAW264.7 cells at 2.5 to 20 uM pretreated for 2 hrs followed by LPS-stimulation and measured after 20 hrs by Griess assay. The format is functional, cell-based.

Consider `C=C[C@]1(C)C=C2C(=O)C(O)=C3[C@](C)(COC(=O)C(C)C)[C@H](O)C[C@H]4C[C@@]34[C@@]2(O)CC1`, for which the IC50 worked out at 1.1 µM in the assay on MCF7; 1.3 µM in the assay with HCT-116; 1.2 µM in the assay with HeLa; 0.8 µM in the assay on SW1990; 2.1 µM in the assay with PANC-1.

For `C=C[C@]1(C)C=C2C(=O)C(O)=C3[C@](C)(COC(=O)C(C)C)[C@H](OC(C)=O)C[C@H]4C[C@@]34[C@@]2(O)CC1`, the half-maximal inhibitory concentration (IC50) in the assay on MCF7 came to 1.4 µM; in the assay with HCT-116, 1 µM; with HeLa it was 0.7 µM; in the assay on SW1990, 0.3 µM; with PANC-1 it was 1.8 µM.

Consider `C=C[C@]1(C)C=C2C(=O)C(O)=C3[C@@]4(O)[C@H](C[C@H](OC(C)=O)[C@]3(C)COC(=O)C(C)C)C[C@]24CC1`, for which the IC50 in the assay on MCF7 is 10.7 µM; with HCT-116 it was 12.6 µM; in the assay on HeLa, 13.1 µM; in the assay with SW1990, 10.3 µM; in the assay on PANC-1, 12.1 µM. The inhibition result with HEK293 was “Dose-dependent effect”. Moreover, the inhibition result in the assay on RAW264.7 was “Active”.

Consider `C=C[C@]1(C)C=C2C(=O)C(=O)[C@H]3[C@](C)(COC(=O)C(C)C)[C@H](OC(C)=O)C[C@H]4C[C@]43[C@@]2(O)CC1`, for which the IC50 with MCF7 is greater than 50 µM; in the assay with HCT-116, 29.4 µM; in the assay on HeLa, greater than 50 µM; with SW1990, greater than 50 µM; in the assay with PANC-1, greater than 50 µM.

Take `C=C[C@@]1(C)CCC2=C(C(=O)O[C@@H]3CC[C@@]4(C)COC(=O)[C@@H]4[C@]23C)[C@H]1O`: the IC50 in the assay on MCF7, in the assay with HCT-116, in the assay with HeLa, in the assay with SW1990 and with PANC-1 was greater than 50 µM throughout.

On to `C=C[C@]1(C)C=C2C(=O)C(O)=C3[C@](C)(COC(C)=O)[C@H](OC(C)=O)C[C@H]4C[C@@]34[C@@]2(O)CC1`, for which the half-inhibitory concentration (IC50) in the assay with MCF7 came out at 4.1 µM; with HCT-116, 2.2 µM; in the assay with HeLa, 3.1 µM; with SW1990, 2.4 µM; with PANC-1 it was 6 µM.

For the compound `C=C[C@]1(C)C=C2C(=O)[C@H](O)[C@H]3[C@](C)(COC(=O)C(C)C)[C@H](OC(C)=O)C[C@H]4C[C@]43[C@@]2(O)CC1`, the IC50 is greater than 50 µM in the assay with MCF7; greater than 50 µM in the assay on HCT-116; greater than 50 µM in the assay on HeLa; greater than 50 µM with SW1990; 26.6 µM with PANC-1.

In the case of `C=C[C@]1(C)C=C2C(=O)C(O)=C3[C@@]4(OC)[C@H](C[C@H](OC(C)=O)[C@]3(C)COC(=O)C(C)C)C[C@]24CC1`, the IC50 in the assay on MCF7 is 8.3 µM; with HCT-116, 8.4 µM; with HeLa it was 6 µM; in the assay with SW1990 it was 8 µM; with PANC-1 it was 7 µM. Also, in the assay with HEK293, the inhibition result is “Dose-dependent effect”. Also, in the assay on RAW264.7, the inhibition entry is “Active”.

In the case of `C=C[C@]1(C)C=C2C(=O)C(O)=C3[C@](C)(COC(=O)CC)[C@H](OC(C)=O)C[C@H]4C[C@@]34[C@@]2(O)CC1`, the IC50 with MCF7 was found to be 2.9 µM; with HCT-116, 1.9 µM; in the assay on HeLa, 2.6 µM; in the assay with SW1990 it was 1 µM; in the assay on PANC-1, 3.6 µM.
